Laboratory results published in ChEMBL document CHEMBL1201862, “PubChem BioAssay data set” (2004).
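Following 48 hours of exposure in 96-well plates, responses at five concentrations were used to interpolate endpoints linearly. At the GI50, growth is halved.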 Active and inactive are the calls of the source. Cut-off read from the data, not from the text of the source: active = GI50 up to about 1.1 µM and inactive = higher.

Key:
Assay in all cases: DTP human tumour cell line panel, 48 h
[1] = test system: ACHN
[2] = test system: CCRF-CEM
[3] = test system: DLD-1
[4] = test system: HCC 2998
[5] = test system: KM-20L2
[6] = test system: M19-MEL
[7] = test system: SF-295
[8] = test system: SR
[9] = test system: TK-10
[10] = test system: XF498
[11] = test system: DMS-114
[12] = test system: HOP-18
[13] = test system: HOP-92
[14] = test system: MCF7
[15] = test system: DU-145
[16] = test system: MDA-MB-231
[17] = test system: MDA-MB-435
[18] = test system: MDA-N
[19] = test system: PC-3
[20] = test system: T47D

Measured: GI50

Cc1cc(C)nc(NS(=O)(=O)c2ccc(NC(=O)c3cccn4c(=O)c5ccccc5nc34)cc2)n1
inactive: [1] > 100 µM | [2] 27.5 µM | [3] 31.9 µM | [4] > 100 µM | [5] > 100 µM | [6] 31.6 µM | [7] > 100 µM | [8] 24 µM | [9] > 100 µM | [10] 54.2 µM

COc1cc(/C=C/c2ccc(OC)c(OC)c2)oc(=O)c1
inactive: [2] > 194 µM | [3] > 250 µM | [11] > 182 µM | [4] > 250 µM | [12] 4.88 µM | [13] 122 µM | [5] > 167 µM | [6] > 250 µM | [14] > 250 µM | [7] 162 µM | [10] > 250 µM

CCCCN1CN2C(=O)C(C(=O)OCC)C(=O)c3sc4nc(SC)nc1c4c32 (stereo not drawn)
inactive: [1] 17 µM | [2] 34 µM | [15] 19 µM | [13] 14.9 µM | [14] 21 µM | [16] 17.9 µM | [17] 18.2 µM | [18] 17.1 µM | [19] 19.2 µM | [7] 16.6 µM | [8] 33.1 µM | [20] 19.7 µM | [9] 14.9 µM

O=NN(CCCl)C(=O)N[C@H]1CC[C@@H](O)CC1
inactive: [2] 12.8 µM | [3] 24.6 µM | [11] 20.7 µM | [4] 81.5 µM | [12] 35.2 µM | [13] 8.43 µM | [5] > 100 µM | [6] 27.9 µM | [14] 31.6 µM | [7] 24 µM | [10] 21.5 µM

CCOC(=O)c1ccc(C)c(/N=N/N(C)C)c1
inactive: [1] > 100 µM | [2] > 100 µM | [3] > 100 µM | [11] > 100 µM | [4] > 100 µM | [12] 4.32 µM | [13] > 100 µM | [5] > 100 µM | [6] > 100 µM | [7] > 100 µM | [8] 93.1 µM | [9] > 100 µM | [10] > 100 µM

COc1cccc(N2C(Cl)C(=O)C2c2c[nH]c3ccccc23)c1 (stereo not drawn)
inactive: [2] > 100 µM | [11] > 100 µM | [13] > 100 µM | [5] > 100 µM | [6] > 100 µM | [7] > 100 µM | [8] > 100 µM | [9] > 100 µM | [10] > 100 µM

CC(C)NC(=O)OCc1c(CO)c2c(n1C)-c1ccccc1CC2
inactive: [2] 12.6 µM | [3] 20.7 µM | [11] 18.7 µM | [4] 19.9 µM | [12] 15 µM | [13] 18.2 µM | [5] 30.8 µM | [6] 23.9 µM | [14] 37.6 µM | [7] 86.9 µM | [10] 14.2 µM

COc1ccc(CN/C=N/C(C#N)=C(\N)C#N)cc1OC
inactive: [1] > 100 µM | [2] > 100 µM | [15] > 100 µM | [4] > 100 µM | [14] > 100 µM | [16] > 100 µM | [17] > 100 µM | [18] > 100 µM | [19] > 100 µM | [7] > 100 µM | [8] > 100 µM | [20] 83.6 µM | [9] > 100 µM

CCOC(=O)Cn1c(=O)c(C)cn(COCCO)c1=O
inactive: [1] > 100 µM | [2] > 10 µM | [15] > 100 µM | [4] > 100 µM | [13] > 100 µM | [14] > 100 µM | [16] > 100 µM | [17] > 100 µM | [18] > 100 µM | [19] > 100 µM | [20] > 100 µM | [9] > 100 µM

Cc1ccc(S(=O)(=O)NC(=N)N(C)N=O)cc1
inactive: [2] > 100 µM | [15] > 100 µM | [13] 84.1 µM | [14] > 100 µM | [16] > 100 µM | [17] > 100 µM | [18] > 100 µM | [19] > 100 µM | [7] > 100 µM | [8] > 100 µM | [20] > 100 µM | [9] > 100 µM

Cc1ccc(C2COc3cc(O)c(O)cc3C2)cc1 (stereo not drawn)
inactive: [2] 1.82 µM | [3] 17.5 µM | [11] 12.7 µM | [4] 35.1 µM | [12] 43.5 µM | [13] 14.4 µM | [5] 35.9 µM | [6] 19 µM | [14] 25.9 µM | [7] 32.6 µM | [10] 9.12 µM

CN(C)CC(C)(C)/C(=N\Nc1ccccc1)c1ccccc1
inactive: [1] 20.1 µM | [2] 29.7 µM | [3] 30.4 µM | [11] 46.7 µM | [12] 35 µM | [5] 16.8 µM | [6] 82.2 µM | [7] 21.1 µM | [9] 22.7 µM

O=C(Nc1ccccc1)c1nn(-c2cc(S(=O)(=O)O)c([N+](=O)[O-])cc2Cl)[n+](-c2cc(S(=O)(=O)[O-])c([N+](=O)[O-])cc2Cl)n1
inactive: [1] > 100 µM | [2] > 100 µM | [15] > 100 µM | [4] > 100 µM | [14] > 100 µM | [16] 43.6 µM | [17] > 100 µM | [18] > 100 µM | [19] > 100 µM | [7] > 100 µM | [8] > 100 µM | [20] > 100 µM | [9] > 100 µM

CCCCS(=N)(=O)CC[C@H](N)C(=O)O (stereo partly drawn) [BUTHIONINE SULFOXIME]
inactive: [1] > 5000 µM | [2] 1040 µM | [3] > 5000 µM | [11] > 5000 µM | [15] > 5000 µM | [4] > 5000 µM | [12] > 5000 µM | [13] 171 µM | [5] > 5000 µM | [6] > 5000 µM | [14] > 4190 µM | [16] > 5000 µM | [17] > 5000 µM | [18] > 10000 µM | [19] > 5000 µM | [7] > 5000 µM | [8] 286 µM | [20] > 5000 µM | [9] > 5000 µM | [10] 476 µM

CCCCCCCCCCCCCCCCSCC(COC)COP(=O)([O-])OCC[N+](C)(C)C (stereo not drawn) [ILMOFOSINE]
inactive: [2] 2.9 µM | [3] 3.03 µM | [11] 7.5 µM | [4] 1.52 µM | [12] 4.12 µM | [13] 2.26 µM | [6] 2.79 µM | [14] 13.2 µM | [7] 2.49 µM | [10] 6.3 µM
